Assay type in all cases: cell-based
Test [1] relates to CaCo2. Nature of the test: Anti-proliferative activity, cell-titre luminescent viability assay. Particulars: Homo sapiens, read-out: IC50 Colorectal CaCo2. The essentials:
(§1)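 Cells were seeded at pre-determined densities, cultured 24 hours at 37° C/5% CO2, then exposed 72 hours to compound at 0.03, 0.3, 3 and 30 μM or at 0.1, 0.3, 1, 3, 10 and 30 μM. Viability was read by cell-titre luminescence after 30 min, normalized to untreated control, and IC50 or EC50 derived.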

Test [2] has as its system DU145. Described as above. Particulars: Homo sapiens, read-out: IC50 Prostate DU145. The essentials: as §1
The test system of test [3] is SK-N-SH. The description is as above. As to conditions: Homo sapiens, SK-N-SH, read-out: IC50 Neuroblastoma SK-N-SH. The essentials:
as §1

The subject of test [4] is PC3. The test is described as above. As to conditions: Homo sapiens, read-out: IC50 Prostate PC3. Put shortly: as §1
Test [5] relates to MDA-MB-231. The description is as above. As to conditions: Homo sapiens, read-out: IC50 Breast MDA-MB-231. Put shortly:
as §1

For test [6], the system named is A549. Described as above. As to conditions: Homo sapiens, read-out: IC50 Lung (NSLC) A549. Put shortly:
as §1

For test [7], the system named is SK-Mel-28. The test is described as above. As to conditions: Homo sapiens, SK-MEL-28, 72 hours, read-out: IC50 Melanoma SK-Mel-28. The essentials:
as §1

Test [8] relates to IL-23. The test can be described thus: Inhibition of cytokine release from PBMCs (HTRF). As to conditions: PBMC, human PBMCs, PMA and ionomycin stimulated. The method, then: (§2) The ability of compounds 3507, 3520, 3534 and 3538 to inhibit the release of cytokines TNF-α, IFN-γ, IL-6, IL-21, IL-17A and IL-23 was evaluated in vitro (Tables 4 and 5). Briefly, human peripheral blood mononuclear cells (PBMCs) were isolated from human peripheral blood by Histopaque density gradient centrifugation. The freshly isolated PBMCs were seeded at 50,000 cells/well in a 96-well half area plate. PBMCs were dosed with the test compounds (at 10 μM, 1 μM and 0.1 μM) and then incubated at 37° C. and 5% CO2 for 2 hours. To stimulate release of the cytokines IFN-γ, IL-21, IL-17A and IL-23, the PBMCs were treated with 50 ng/mL of phorbol 12-myristate 13-acetate (PMA) and 1 μg/mL of ionomycin and to stimulate the release of TNF-α and IL-6, PBMCs were treated with 100 ng/mL of lipopolysaccharide (LPS) from gram-negative bacteria. The PBMCs were then incubated at 37° C. and 5% CO2 for a further 6 hours and the cell supernatant was collected and a Homogenous Time Resolved Fluorescence (HTRF) assay was carried out following the manufacturer's instructions. Cytokine release from the PBMCs was captured using a Perkin Elmer ENVISION 2104 microplate reader set at 615 nm and 665 nm respectively.
For orientation: TR-FRET usually uses a lanthanide donor and a delayed reading to cut background.

For test [9], the system named is IL-17A. The test can be described thus: Inhibition of cytokine release from PBMCs (HTRF). As to conditions: PBMC, human PBMCs, PMA and ionomycin stimulated. How it is done: as §2
Test [10] relates to TNF-α. Nature of the test: Inhibition of cytokine release from PBMCs (HTRF). As to conditions: PBMC, human PBMCs, LPS stimulated. How it is done: as §2
Test [11] relates to IFN-γ. Nature of the test: Inhibition of cytokine release from PBMCs (HTRF). As to conditions: PBMC, human PBMCs, PMA and ionomycin stimulated. The method, then:
as §2

In test [12] the test system is IL-6. Nature of the test: Inhibition of cytokine release from PBMCs (HTRF). As to conditions: PBMC, human PBMCs, LPS stimulated. The method, then:
as §2

The subject of test [13] is IL-21. Nature of the test: Inhibition of cytokine release from PBMCs (HTRF). Particulars: PBMC, human PBMCs, PMA and ionomycin stimulated. How it is done: as §2
The mark [14] stands for this setting: Caco-2, 72 h, 0.03, 0.3, 3 and 30 μM, linear regression of semi-log plots.
Where [15] appears, read: DU-145, 72 h, 0.03, 0.3, 3 and 30 μM, linear regression of semi-log plots.
The mark [16] stands for this setting: 72 h, 0.03, 0.3, 3 and 30 μM, linear regression of semi-log plots.
The mark [17] stands for this setting: PC-3, 72 h, 0.03, 0.3, 3 and 30 μM, linear regression of semi-log plots.
[18] abbreviates: MDA-MB-231, 72 h, 0.03, 0.3, 3 and 30 μM, linear regression of semi-log plots.
Setting [19] is: A549, 72 h, 0.03, 0.3, 3 and 30 μM, linear regression of semi-log plots.
[20] abbreviates: 0.03, 0.3, 3 and 30 μM, linear regression of semi-log plots.
The mark [21] stands for this setting: Caco-2, 72 h, 0.1, 0.3, 1, 3, 10 and 30 μM, nonlinear regression sigmoidal dose-response (EC50).
Where [22] appears, read: DU-145, 72 h, 0.1, 0.3, 1, 3, 10 and 30 μM, nonlinear regression sigmoidal dose-response (EC50).
Where [23] appears, read: 72 h, 0.1, 0.3, 1, 3, 10 and 30 μM, nonlinear regression sigmoidal dose-response (EC50).
The mark [24] stands for this setting: PC-3, 72 h, 0.1, 0.3, 1, 3, 10 and 30 μM, nonlinear regression sigmoidal dose-response (EC50).
Where [25] appears, read: MDA-MB-231, 72 h, 0.1, 0.3, 1, 3, 10 and 30 μM, nonlinear regression sigmoidal dose-response (EC50).
The mark [26] stands for this setting: A549, 72 h, 0.1, 0.3, 1, 3, 10 and 30 μM, nonlinear regression sigmoidal dose-response (EC50).
[27] abbreviates: 0.1, 0.3, 1, 3, 10 and 30 μM, nonlinear regression sigmoidal dose-response (EC50).

Usually pIC50 stands for −log10 of the IC50, conventionally taken in molar units. As a reminder, the inhibition is the drop in the measured response relative to a control, in per cent.

pIC50: −log10 of the molar value. Where two headings read alike, the source gives them in different places.

On to `COc1ccc(CCN2CCN(C(=O)c3ccc(Cc4ccc5c(c4)c(C)c(C)n5CCCN4CCN(C)CC4)cc3)CC2)cc1` [Compound 3520, (4-((2,3-dimethyl-1-(3-(4-methylpiperazin-1-yl)propyl)-1H-indol-5-yl)methyl)phenyl)(4-(4-methoxyphenethyl)piperazin-1-yl)methanone], for which the negative logarithm of the IC50 (pIC50) in test [1] (setting [14]) was 5.46; in [2] (setting [15]), 5.57; in [3] (setting [16]) it was 5.64; in [4] (setting [17]), 5.64; in test [5] (setting [18]), 5.55; in test [6] (setting [19]), 5.62. Further, in test [7] (setting [20]), the pIC50 is 5.60. Further, the inhibition at 0.1 µM in [8] is -8%; in test [9], -11%; in test [10], -8%; in test [11], 1%; in [12], -10%; in test [13], -8%. Besides, the inhibition at 1 µM was -1% in [8]; -7% in test [9]; -10% in test [10]; 0% in [11]; -9% in test [12]; -13% in test [13]. The inhibition at 10 µM in [8] was 12%; in [9], 1%; in test [10] it was -14%; in test [11], 4%; in [12], 3%; in test [13] it was -12%.

`Cc1c(C)n(CCCN2CCN(C)CC2)c2ccc(Nc3ccc(C(=O)N4CCN(CCc5cccc(F)c5)CC4)cc3)cc12` [Compound 3534, (4-((2,3-dimethyl-1-(3-(4-methylpiperazin-1-yl)propyl)-1H-indol-5-yl)amino)phenyl)(4-(3-fluorophenethyl)piperazin-1-yl)methanone]: the negative logarithm of the IC50 (pIC50) is 5.49 in [1] (setting [14]); 5.85 in test [2] (setting [15]); 5.85 in [3] (setting [16]); 5.55 in [4] (setting [17]); 5.80 in [5] (setting [18]); 5.82 in test [6] (setting [19]). Moreover, the pIC50 in test [7] (setting [20]) was 5.92. For the same compound, the inhibition at 0.1 µM in test [8] is -5%; in [9], 1%; in test [10], 2%; in [11], 23%; in test [12] it was 13%; in [13], 0%. Besides, the inhibition at 1 µM in test [8] was -1%; in [9], 1%; in test [10], 5%; in test [11] it was 39%; in test [12], 21%; in test [13], -8%. In addition, the inhibition at 10 µM in test [8] is 20%; in test [9], 12%; in [10], -12%; in test [11], 85%; in [12], 48%; in test [13], 11%.

For `COc1ccc2cc(CCN3CCN(C(=O)c4cccc(Cc5ccc6c(c5)c(C)c(C)n6CCCN5CCN(C)CC5)c4)CC3)ccc2c1` [Compound 3538, (3-((2,3-dimethyl-1-(3-(4-methylpiperazin-1-yl)propyl)-1H-indol-5-yl)methyl)phenyl)(4-(2-(6-methoxynaphthalen-2-yl)ethyl)piperazin-1-yl)methanone], the pIC50 in test [1] (setting [21]) is 5.24; in test [2] (setting [22]), 5.38; in test [3] (setting [23]), 5.32; in test [4] (setting [24]) it was 5.41; in test [5] (setting [25]), 5.44; in test [6] (setting [26]) it was 5.37. Also, the pIC50 in test [7] (setting [27]) is 5.48. For the same compound, the inhibition at 0.1 µM was -19% in test [8]; 21% in test [9]; -10% in test [10]; 24% in test [11]; -13% in test [12]; 1% in test [13]. Besides, the inhibition at 1 µM is -20% in [8]; 42% in test [9]; -4% in test [10]; 58% in test [11]; -13% in [12]; 8% in [13]. Besides, the inhibition at 10 µM was 30% in test [8]; 86% in test [9]; -7% in test [10]; 86% in [11]; -10% in test [12]; 11% in [13].

`Cc1c(C)n(CCCN2CCN(C)CC2)c2ccc(Cc3ccc(C(=O)N4CCN(CCc5cccc6ccccc56)CC4)cc3)cc12` [Compound 3544, (4-((2,3-dimethyl-1-(3-(4-methylpiperazin-1-yl)propyl)-1H-indol-5-yl)methyl)phenyl)(4-(2-(naphthalen-1-yl)ethyl)piperazin-1-yl)methanone]: the pIC50 was 4.87 in test [1] (setting [21]); 5.05 in test [2] (setting [22]); 5.15 in test [3] (setting [23]); 5.09 in test [4] (setting [24]); 5.09 in test [5] (setting [25]); 5.24 in test [6] (setting [26]). Besides, the pIC50 in test [7] (setting [27]) is 5.14.

With `COc1ccc2cccc(CCN3CCN(C(=O)c4ccc(Cc5ccc6c(c5)c(C)c(C)n6CCCN5CCN(C)CC5)cc4)CC3)c2c1` [Compound 3545, (4-((2,3-dimethyl-1-(3-(4-methylpiperazin-1-yl)propyl)-1H-indol-5-yl)methyl)phenyl)(4-(2-(7-methoxynaphthalen-1-yl)ethyl)piperazin-1-yl)methanone], the pIC50 is 5.51 in [1] (setting [21]); 5.44 in test [2] (setting [22]); 5.68 in test [3] (setting [23]); 5.52 in [4] (setting [24]); 5.64 in [5] (setting [25]); 5.38 in test [6] (setting [26]). In [7] (setting [27]), the pIC50 was 5.49.

The values are drawn from US20170152226A1, “FUNCTIONALISED AND SUBSTITUTED INDOLES AS ANTI-CANCER AGENTS” (Novogen Ltd., priority 2014, published 2017).
